Measured values from patent publication US7514469B2, “Formulation of a mixture of Free-B-ring flavonoids and flavans as a therapeutic agent” (Unigen Pharmaceuticals, Inc., priority 2002, dated 2009).
Where two headings read alike, the source gives them in different places.

Key:
[1] = molecular target: T1, recombinant ovine COX-2 (Ovis aries, UniProt P79208); test: COX-2 peroxidase assay, high throughput (Example 2); assay type: biochemical; conditions: 20 μg/mL
T1 construct: purchased Cayman
T1 sequence (P79208 17-603): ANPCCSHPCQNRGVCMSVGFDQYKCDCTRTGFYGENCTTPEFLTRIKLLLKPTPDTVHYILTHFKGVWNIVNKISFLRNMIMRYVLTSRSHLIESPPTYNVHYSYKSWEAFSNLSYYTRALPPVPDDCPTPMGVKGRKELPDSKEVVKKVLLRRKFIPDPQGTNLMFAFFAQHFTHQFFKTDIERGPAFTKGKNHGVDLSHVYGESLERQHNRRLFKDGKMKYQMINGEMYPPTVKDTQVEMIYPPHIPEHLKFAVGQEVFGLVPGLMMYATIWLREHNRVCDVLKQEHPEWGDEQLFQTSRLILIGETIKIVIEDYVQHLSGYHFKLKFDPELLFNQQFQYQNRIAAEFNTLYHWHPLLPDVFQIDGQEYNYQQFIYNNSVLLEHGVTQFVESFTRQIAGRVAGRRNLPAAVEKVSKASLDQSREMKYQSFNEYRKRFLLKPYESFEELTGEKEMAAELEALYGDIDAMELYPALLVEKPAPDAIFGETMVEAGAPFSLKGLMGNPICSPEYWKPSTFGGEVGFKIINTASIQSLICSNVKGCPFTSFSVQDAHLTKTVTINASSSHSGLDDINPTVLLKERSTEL
Description: Peroxidase Assay. The assay to detect inhibitors of COX-2 was modified for a high throughput platform (Raz). […] Luminescence was then read using a Wallac Victor 2 plate reader. […] Data is presented as the percent of peroxidase activity relative to the recombinant ovine COX-2 enzyme and substrate alone.

[2] = molecular target: T2, Ovine COX-1 (Ovis aries, UniProt P05979); test: COX-1 peroxidase assay (Example 2 method); assay type: biochemical; conditions: read-out: Inhibition of COX-1
T2 sequence (P05979 25-600): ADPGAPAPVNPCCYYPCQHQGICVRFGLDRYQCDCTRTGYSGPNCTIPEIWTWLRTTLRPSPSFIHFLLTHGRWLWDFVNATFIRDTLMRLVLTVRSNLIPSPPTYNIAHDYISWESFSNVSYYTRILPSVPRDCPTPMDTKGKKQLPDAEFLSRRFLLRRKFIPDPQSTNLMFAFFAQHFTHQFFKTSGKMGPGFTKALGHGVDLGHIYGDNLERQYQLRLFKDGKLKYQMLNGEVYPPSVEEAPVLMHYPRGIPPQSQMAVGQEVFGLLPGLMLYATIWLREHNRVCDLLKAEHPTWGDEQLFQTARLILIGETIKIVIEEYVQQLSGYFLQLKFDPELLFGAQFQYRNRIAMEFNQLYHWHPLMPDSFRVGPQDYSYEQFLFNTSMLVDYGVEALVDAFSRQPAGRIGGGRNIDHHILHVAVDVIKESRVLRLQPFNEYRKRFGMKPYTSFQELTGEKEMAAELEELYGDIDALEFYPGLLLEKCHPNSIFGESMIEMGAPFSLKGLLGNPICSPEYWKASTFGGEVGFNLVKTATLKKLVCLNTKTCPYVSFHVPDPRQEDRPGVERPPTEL
Description: Peroxidase Assay. The assay to detect inhibitors of COX-2 was modified for a high throughput platform (Raz). […] Luminescence was then read using a Wallac Victor 2 plate reader.
Comparison of the relative inhibition of the COX-1 and COX-2 isoforms requires the generation of IC50 values for each of these enzymes. […] Examination of the HTP fractions and purified compounds from these fractions is necessary to determine the true specificity of inhibition for these extracts and compounds.

[3] = tested on: COX-1; conditions: cited from earlier work
[4] = tested on: mouse; conditions: oral, 100 mg/kg; cited from earlier work
[5] = molecular target: T2, Ovine COX-1; test: COX-1 peroxidase activity IC50 assay with TMPD (Example 6); assay type: biochemical
Method: (§1) A cleavable, peroxide chromophore was included in the assay to visualize the peroxidase activity of each enzyme in the presence of arachidonic acid as a cofactor. Typically, the assays were performed in a 96-well format. Each inhibitor, taken from a 10 mg/mL stock in 100% DMSO, was tested in triplicate at room temperature using the following range of concentrations: 0, 0.1, 1, 5, 10, 20, 50, 100, and 500 μg/mL. […] The components were mixed for 10 seconds on a rotating platform, after which 20 μL of 2 mM N,N,N′N′-Tetramethyl-p-phenylenediamine dihydrochloride (TMPD) and 20 μL of 1.1 mM AA was added to initiate the reaction. The plate was shaken for 10 seconds and then incubated for 5 minutes before reading the absorbance at 570 nm. The inhibitor concentration vs. percentage inhibition was plotted and the IC50 determined by taking the half-maximal point along the isotherm and intersecting the concentration on the x-axis. The IC50 was then normalized to the number of enzyme units in the assay.

[6] = molecular target: T1, recombinant ovine COX-2; test: COX-2 peroxidase activity IC50 assay with TMPD (Example 6); assay type: biochemical
Method: as §1

[7] = molecular target: potato 5-lipoxygenase; test: Lipoxygenase Inhibitor Screening Assay with potato 5-LO; assay type: biochemical
Description: As noted above, one of the most important pathways involved in the inflammatory response is produced by non-heme, iron-containing lipoxygenases (5-LO, 12-LO, and 15-LO), which catalyze the addition of molecular oxygen onto fatty acids such as AA (AA) to produce the hydroperoxides 5-, 12- and 15-HPETE, which are then converted to leukotrienes. There were early indications that the flavan extract from A. catechu may provide some degree of 5-LO inhibition, thereby preventing the formation of 5-HPETE. […] The 15-LO from soybeans normally used in the kit was replaced with potato 5-LO, after a buffer change from phosphate to a tris-based buffer using microfiltration was performed. This assay detects the formation of hydroperoxides through an oxygen sensing chromagen.

[8] = tested on: LTB4 synthesis (5-LO pathway) in HT-29 cells; test: LTB4 ELISA in HT-29 cells; assay type: cell-based; conditions: 3 μg/mL, 48 hrs; Univestin ratio 80:20
Method: A competitive ELISA for LTB4 (LTB4; Neogen, Inc., Cat #4061 10) was used to assess the effect of Univestin™ on newly synthesized levels of LTB4 present in each cell line as a measure of Univestin™'s inhibitory effect on the 5-LO pathway. The assay was performed in duplicate by adding 160,000 to 180,000 cells per well in 6-well plates. […] Each treated cell line was then harvested by centrifugation and disrupted by gentle dounce homogenization lysis in physiological buffers.

[9] = tested on: subjects with rheumatoid arthritis or osteoarthritis of the knee and/or hip; test: Clinical study, WOMAC Osteo-Arthritis Index; assay type: in vivo, human; conditions: 200 mg/day; vs baseline; completers only
Description: This clinical study was a single-center, randomized, double-blind, placebo-controlled study. Sixty subjects (n=60) with rheumatoid arthritis or osteoarthritis of the knee and/or hip were randomly placed into one of the following four groups:
Subjects were sex-matched and recruited from ages 40 to 75. […] Subjects taking NSAIDs engaged in a two-week washout period before beginning the study. Physical activity was not restricted, nor were the subjects given any advice as to diet. Subjects were free to withdraw from the trial at any time for any reason. The efficacy of the treatments was evaluated at 30, 60 and 90 days of oral administration by physicians, using the Western Ontario and McMaster Universities (WOMAC) Osteo-Arthritis Index (See Lingard et al. (2001) J. Bone & Joint Surg. 83:1856-1864; Soderman and Malchau (2000) Acta Orthop. Scand. 71(1):39-46). This protocol was reviewed and approved by an IRB board from University of Montreal.
The WOMAC was administered to subjects preferably in the doctor's office. They were asked to read and respond to a questionnaire on their own or via proxy in the waiting room of the doctor's office or were interviewed by project personnel over the telephone and the data were transcribed in the computer database. This offered a stable environment among patients and reduced the possibility of bias due to different home environments among patients. Between groups differences for all measurements were evaluated with One-Way Analysis of Variance and Tukey's Least Significant Difference for multiple comparisons. All questions were assigned a weight from 0 to 4 depending on the severity of pain, stiffness or impaired function. These values were then converted to percentages normalized to 100 and reported as WOMAC scores. Higher values are indicative of greater impairment. […] The lower the score, the less pain and stiffness and better function a patient has.

[10] = Clinical study, weight and BMI; assay type: in vivo, human; conditions: 200 mg/day
Method: Additional measurements taken during the clinical trial were height and weight. All subjects in all groups (see Example 20) were measured for height and weight at 30 and 90 days of treatment. The subjects were given no recommendations on diet or exercise in order not to bias the results toward reduction of BMI and weight loss. Table 14 illustrates the changes in weight and BMI that occurred after treatment for 30 and 90 days.

[11] = tested on: colorectal cancer; conditions: in vivo; cited from earlier work

O=C(O)[C@H]1O[C@@H](Oc2cc3oc(-c4ccccc4)cc(=O)c3c(O)c2O)[C@H](O)[C@@H](O)[C@@H]1O [baicalin]
inhibition at 20 µg/mL [1]: 97% | inhibition at 20 µg/mL ([2]; 20 μg/mL): 95%

Oc1ccc([C@H]2Oc3cc(O)cc(O)c3C[C@H]2O)cc1 [Epiafzelechin]
IC50 ([3]; isolated from Celastrus orbiculatus): 15 µM | Anti-inflammatory activity, carrageenin-induced mouse paw edema [4]: demonstrated anti-inflammatory activity

COc1cc2oc(-c3ccccc3)cc(=O)c2c(O)c1O [5,6-Dihydroxy-7-methoxyflavone]
inhibition at 20 µg/mL [1]: 59% | inhibition at 20 µg/mL ([2]; 20 μg/mL): 75%

COc1c(O)cc(O)c2c(=O)cc(-c3ccccc3)oc12 [Wogonin]
inhibition at 20 µg/mL [2]: 16%

O=c1cc(-c2ccccc2)oc2c(O)c(O)ccc12 [7,8-Dihydroxyflavone]
inhibition at 20 µg/mL [1]: 63% | inhibition at 20 µg/mL ([2]; 20 μg/mL): 74%

Oc1cc(O)c2c(c1)OC(c1ccc(O)c(O)c1)C(O)C2 (centres unmarked) [catechin]
IC50 for COX-1 ([5]; normalized to enzyme units): 0.11 μg/mL/unit of enzyme | IC50 for COX-2 ([6]; normalized to enzyme units): 0.42 μg/mL/unit | IC50 for 5-LO [7]: 1.38 μg/mL/unit of enzyme

CC(C)Cc1ccc(C(C)C(=O)O)cc1 (centres unmarked) [Ibuprofen]
Reduction of newly synthesized LTB4 [8]: 20%

Cc1ccc(-c2cc(C(F)(F)F)nn2-c2ccc(S(N)(=O)=O)cc2)cc1 [Celecoxib]
Mean absolute change in WOMAC score Function-30 days [9]: −0.37 | Mean absolute change in WOMAC score Function-60 days [9]: −6.97 | Mean absolute change in WOMAC score Function-90 days [9]: −2.78 | Mean absolute change in WOMAC score Pain-30 days [9]: −4.23 | Mean absolute change in WOMAC score Pain-60 days [9]: −22.31 | Mean absolute change in WOMAC score Pain-90 days [9]: −16.67 | Mean absolute change in WOMAC score Stiffness-30 days [9]: −8.65 | Mean absolute change in WOMAC score Stiffness-60 days [9]: −9.62 | Mean absolute change in WOMAC score Stiffness-90 days [9]: −13.54 | Change in mean BMI, 30 days [10]: −.68 kg/m^2 | Change in mean BMI, 90 days [10]: −1.07 kg/m^2 | Change in mean weight, 30 days [10]: -2.00 kg | Change in mean weight, 90 days [10]: -3.17 kg

O=c1cc(-c2ccccc2)oc2cc(O)c(O)c(O)c12 [baicalein]
inhibition at 20 µg/mL ([2]; 20 μg/mL): 107%

Oc1cc(O)c2c(c1)O[C@H](c1ccc(O)c(O)c1)[C@H](O)C2 [epicatechin]
IC50 [5]: 24.1 µM | IC50 [6]: 68.9 µM

CC(=O)Oc1ccccc1C(=O)O [Aspirin]
Reduction of colorectal cancer mortality [11]: 50% | Reduction of incidence of colorectal cancer [11]: 40-50%

Oc1cc(O)c2c(c1)O[C@H](c1ccc(O)c(O)c1)[C@@H](O)C2 [(+)-Catechin]
IC50 ([3]; isolated from natural source): 80 µM
